Results reported in patent publication US20130184330A1, “COMPOSITIONS AND METHODS FOR INDUCING CANCER CELL DEATH” (UNIVERSITY OF MIAMI, priority 2010, published 2013).
Entries after “also recorded” stand apart in the source; their conditions may differ.

Assays:
[1] = test system: PERK+/+ MEFs; experiment: Cell death analysis in wild type MEFs; type: cell-based, mouse; conditions: similar conditions as for PERK−/− cells
Text: (§1) Cell types: Human tumor cell lines 1469 (pancreatic) and MDA-MB-435 (melanoma) were purchased from American Type Culture Collection (ATCC), and maintained in DMEM with 1 g/l of glucose (Mediatech). Mouse embryonic fibroblasts (MEF) that are PERK knock-out and its wild type pair were a kind gift from Dr. Mark Lehrman (University of Southwestern Texas, Dallas, Tex.). MEFs that have wild type eif2-α and eif2-α with its serine51 mutated to alanine were a kind gift from Dr. Glen Barber (University of Miami, Miami, Fla.). All MEFS were maintained in RPMI with 2 g/l of glucose (Invitrogen). All culture media were supplemented with 10% fetal bovine serum (FBS) (Invitrogen), penicillin/streptomycin (Invitrogen) and 0.1% Plasmocin (only for cell passage) (InvivoGen) unless otherwise specified. Cells were grown under 5% CO2 at 37° C.
(§2) Growth inhibition and Cytotoxicity assays: Cells were seeded onto 24-well plates and cultured for 18-22 h. After drug exposure for 48 hours, attached cells and their respective culture media were collected and centrifuged at 400 g for 5 min. The pellets were then resuspended in Hanks Balanced Salt Solution (HBSS) (Mediatech) and analyzed with Vi-Cell cell viability analyzer (Beckman Coulter) based on trypan blue exclusion. Results were shown as the percentages of dead cells out of total cells counted. […]

[2] = test system: PERK−/− MEFs; experiment: Cell death analysis in PERK knock-out MEFs; type: cell-based, mouse
Text: as §1
Growth inhibition and Cytotoxicity assays: Cells were seeded onto 24-well plates and cultured for 18-22 h. After drug exposure for 48 hours, attached cells and their respective culture media were collected and centrifuged at 400 g for 5 min. The pellets were then resuspended in Hanks Balanced Salt Solution (HBSS) (Mediatech) and analyzed with Vi-Cell cell viability analyzer (Beckman Coulter) based on trypan blue exclusion. Results were shown as the percentages of dead cells out of total cells counted. Data were the averages of triplicate samples +SD from one representative experiment out of at least three independent analyses unless otherwise indicated.
(§3) siRNA transfection: Cells were seeded into 25-cm^2 flasks and cultured for 24 h to reach ˜60% confluence using antibiotics-free media. Then, cells were transfected with anti-Luc siRNA-1 (targeting luciiferase) or ON-TARGETplus SMARTpool siRNA against PERK or GCN2 using the DharmaFECT siRNA transfection reagent #2 (Dharmacon). Twenty-four hours after transfection, cells were collected and re-seeded onto 6-well or 24-well plates and drug-treated for immunoblotting or cytotoxicity analyses, respectively.

[3] = test system: patients with various tumor types; conditions: in combination with taxotere; cited from earlier work
[4] = test system: AMPK and eif2-α phosphorylation, GRP78 and CHOP expression in MDA-MB-435 cells; experiment: Western blot of ATP and ER stress/UPR markers; type: cell-based, human
Text: as §1
(§4) Immunoblotting analysis: Cells were seeded onto six-well plates and cultured for 18-22 h to reach 40-70% confluence. Following drug exposure for the indicated times, cells were harvested and lysed with the lysis buffer (100 mM Tris-HCl at pH 7.4, 1% SDS, phosphatase inhibitor cocktail 2 and protease inhibitor cocktail from Sigma-Aldrich). Protein concentrations of each sample were determined using a Micro BCA Protein Assay Kit (Thermo Scientific) according to the manufacturer's directions, and equal amounts of proteins were loaded onto 4-15% Tris-HCl gradient gels (except 12% gels for siRNA experiments) (Bio-Rad). After SDS-PAGE, proteins were transferred onto a polyvinylidene fluoride (PVDF) membrane (Millipore), blocked with 5% milk and probed with corresponding primary antibodies overnight (except 1 h for β-actin). The membrane was washed and probed with secondary antibodies for 1 h. Membrane was then incubated with SuperSignal West Pico or Femto Chemiluminescent Substrate (Thermo Scientific) and signals were visualized on Blue Lite Autorad Films (ISCBioExpress). All primary antibodies were used at 1:1000 dilution except for Atg7 (1:300) and β-actin (1:10000), and the secondary antibodies were used at 1:10000. Representative blots from at least three independent experiments were shown unless otherwise indicated.
as §3

[5] = test system: eif2-α and GCN2 phosphorylation in PERK−/− MEFs; experiment: Western blot of phosphorylated eif2-α and GCN2 in PERK knock-out MEFs; type: cell-based, mouse
Text: as §1, §4

[6] = test system: MEF eif2a A/A; experiment: Cell death analysis in MEFs with non-phosphorylatable eif2-α; type: cell-based, mouse; conditions: 48 hours
Text: as §1, §2

[7] = test system: MDA-MB-435 cells; experiment: Growth inhibition assay, Vi-Cell trypan blue exclusion; type: cell-based, human; conditions: 48 hours, equivalent doses, i.e. 0.3 mM and 2 mM
Text: as §1, §2

O=CC[C@@H](O)[C@H](O)[C@H](O)CO [2-DG, 2-Deoxy-D-glucose]
2-DG toxicity in PERK+/+ cells with siRNA against GCN2 or increased glutamine [1]: not increased
toxicity of 2-DG in PERK−/− vs PERK+/+ MEFs ([2]; 48 hours): more toxic; also recorded: more sensitive
tolerability in phase I trial [3]: well-tolerated
eIF2a phosphorylation ([4]; 2-DG 0.2 mM and 2 mM, 24 hours): phosphorylated (inhibited)
AMPK phosphorylation ([4]; 2-DG 0.2 mM, 24 hours): phosphorylated
levels of UPR chaperone GRP 78 ([4]; 2-DG, aerobic conditions): increased levels
GCN2 phosphorylation induced by 2-DG ([5]; 2-DG 2 and 8 mM, 4 mM glutamine, 24 hours): induces phosphorylation of GCN2
phosphorylated eif2-α levels in PERK−/− vs PERK+/+ cells ([5]; as a function of time of treatment with 2-DG): significantly lower levels
sensitivity of eif2-α mutant MEFs to toxic effects of 2-DG vs parental [6]: more sensitive

O=C[C@H](F)[C@@H](O)[C@H](O)[C@H](O)CO [2-FDG, 2-fluoro-deoxy-D-glucose]
toxicity of 2-FDG in PERK−/− cells ([2]; doses that do not induce ER stress but block glycolysis, 48 hours): very little or no toxicity
growth inhibitory activity compared with 2-DG [7]: significantly less growth inhibitory activity than 2-DG
induction of UPR marker GRP 78 compared with 2-DG ([4]; equivalent doses, 0.3 mM and 2 mM): less induction

NC(=O)CC[C@H](N)C(=O)O [glutamine]
2-DG toxicity in PERK−/− cells in 8 mM vs 4 mM glutamine ([2]; 8 mM glutamine, 2-DG 48 hours): increased toxicity
eif2-α phosphorylation with exogenous glutamine ([5]; 2-DG treated PERK−/− cells, exogenous glutamine): reduces
2-DG induced GCN2 phosphorylation with exogenous glutamine ([5]; glutamine increased to 8 mM): attenuated
